From article PMC12670405, “Second-Generation AURKA-Targeting PROTACs: Structural Optimization toward in Vivo Degradation in Neuroblastoma” (Journal of Medicinal Chemistry, 2025)

Assays:
Assay in all cases: KINOMEscan scanMAX
Type in all cases: binding
PLK2 = molecular target: T1, PLK2 (Homo sapiens, UniProt Q9NYY3); conditions: read-out: Percent Control
T1 construct: purchased Eurofins Discovery (DiscoverX KINOMEscan scanMAX)
Protocol: (§1) The kinome-wide binding assay was performed by Eurofins Discovery using the scanMAX screening platform. More information can be found on the Eurofins Discovery Web site.

FGFR2 = molecular target: T2, FGFR2 (Homo sapiens, UniProt P21802); conditions: read-out: Percent Control
T2 construct: purchased Eurofins Discovery (DiscoverX KINOMEscan scanMAX)
Protocol: as §1

MAP4K3 = molecular target: T3, MAP4K3 (Homo sapiens, UniProt Q8IVH8); conditions: read-out: Percent Control
T3 construct: purchased Eurofins Discovery (DiscoverX KINOMEscan scanMAX)
Protocol: as §1

BMPR2 = molecular target: T4, BMPR2 (Homo sapiens, UniProt Q13873); conditions: read-out: Percent Control
T4 construct: purchased Eurofins Discovery (DiscoverX KINOMEscan scanMAX)
Protocol: as §1

EGFR(G719C) = molecular target: T5, EGFR(G719C) (Homo sapiens, UniProt P00533, G719C); conditions: read-out: Percent Control
T5 construct: purchased Eurofins Discovery (DiscoverX KINOMEscan scanMAX)
Protocol: as §1

[1] = molecular target: T6, ABL1(F317L)-phosphorylated (Homo sapiens, UniProt P00519, F317L); conditions: read-out: Percent Control
T6 construct: purchased Eurofins Discovery (DiscoverX KINOMEscan scanMAX)
Protocol: as §1

PIM3 = molecular target: T7, PIM3 (Homo sapiens, UniProt Q86V86); conditions: read-out: Percent Control
T7 construct: purchased Eurofins Discovery (DiscoverX KINOMEscan scanMAX)
Protocol: as §1

NEK2 = molecular target: T8, NEK2 (Homo sapiens, UniProt P51955); conditions: read-out: Percent Control
T8 construct: purchased Eurofins Discovery (DiscoverX KINOMEscan scanMAX)
Protocol: as §1

ADCK4 = molecular target: T9, ADCK4 (Homo sapiens, UniProt Q96D53); conditions: read-out: Percent Control
T9 construct: purchased Eurofins Discovery (DiscoverX KINOMEscan scanMAX)
Protocol: as §1

[2] = molecular target: T10, EGFR(L747-S752del, P753S) (Homo sapiens, UniProt P00533, DEL747-752/P753S); conditions: read-out: Percent Control
T10 construct: purchased Eurofins Discovery (DiscoverX KINOMEscan scanMAX)
Protocol: as §1

CAMKK2 = molecular target: T11, CAMKK2 (Homo sapiens, UniProt Q96RR4); conditions: read-out: Percent Control
T11 construct: purchased Eurofins Discovery (DiscoverX KINOMEscan scanMAX)
Protocol: as §1

TAOK1 = molecular target: T12, TAOK1 (Homo sapiens, UniProt Q7L7X3); conditions: read-out: Percent Control
T12 construct: purchased Eurofins Discovery (DiscoverX KINOMEscan scanMAX)
Protocol: as §1

EPHA2 = molecular target: T13, EPHA2 (Homo sapiens, UniProt P29317); conditions: read-out: Percent Control
T13 construct: purchased Eurofins Discovery (DiscoverX KINOMEscan scanMAX)
Protocol: as §1

PLK4 = molecular target: T14, PLK4 (Homo sapiens, UniProt O00444); conditions: read-out: Percent Control
T14 construct: purchased Eurofins Discovery (DiscoverX KINOMEscan scanMAX)
Protocol: as §1

CDK5 = molecular target: T15, CDK5 (Homo sapiens, UniProt Q00535); conditions: read-out: Percent Control
T15 construct: purchased Eurofins Discovery (DiscoverX KINOMEscan scanMAX)
Protocol: as §1

CDK4-cyclinD3 = molecular target: T16, CDK4-cyclinD3 (Homo sapiens, UniProt P11802); conditions: read-out: Percent Control
T16 construct: purchased Eurofins Discovery (DiscoverX KINOMEscan scanMAX)
Protocol: as §1

INSR = molecular target: T17, INSR (Homo sapiens, UniProt P06213); conditions: read-out: Percent Control
T17 construct: purchased Eurofins Discovery (DiscoverX KINOMEscan scanMAX)
Protocol: as §1

[3] = molecular target: T18, ABL1(Q252H)-nonphosphorylated (Homo sapiens, UniProt P00519, Q252H); conditions: read-out: Percent Control
T18 construct: purchased Eurofins Discovery (DiscoverX KINOMEscan scanMAX)
Protocol: as §1

RIOK3 = molecular target: T19, RIOK3 (Homo sapiens, UniProt O14730); conditions: read-out: Percent Control
T19 construct: purchased Eurofins Discovery (DiscoverX KINOMEscan scanMAX)
Protocol: as §1

WNK1 = molecular target: T20, WNK1 (Homo sapiens, UniProt Q9H4A3); conditions: read-out: Percent Control
T20 construct: purchased Eurofins Discovery (DiscoverX KINOMEscan scanMAX)
Protocol: as §1

EPHB3 = molecular target: T21, EPHB3 (Homo sapiens, UniProt P54753); conditions: read-out: Percent Control
T21 construct: purchased Eurofins Discovery (DiscoverX KINOMEscan scanMAX)
Protocol: as §1

FLT3(ITD,F691L) = tested on: FLT3(ITD,F691L)
Protocol: as §1

DCAMKL1 = molecular target: T22, DCAMKL1 (Homo sapiens, UniProt O15075); conditions: read-out: Percent Control
T22 construct: purchased Eurofins Discovery (DiscoverX KINOMEscan scanMAX)
Protocol: as §1

TLK2 = molecular target: T23, TLK2 (Homo sapiens, UniProt Q86UE8); conditions: read-out: Percent Control
T23 construct: purchased Eurofins Discovery (DiscoverX KINOMEscan scanMAX)
Protocol: as §1

ZAP70 = molecular target: T24, ZAP70 (Homo sapiens, UniProt P43403); conditions: read-out: Percent Control
T24 construct: purchased Eurofins Discovery (DiscoverX KINOMEscan scanMAX)
Protocol: as §1

IRAK3 = molecular target: T25, IRAK3 (Homo sapiens, UniProt Q9Y616); conditions: read-out: Percent Control
T25 construct: purchased Eurofins Discovery (DiscoverX KINOMEscan scanMAX)
Protocol: as §1

MST4 = molecular target: T26, MST4 (Homo sapiens, UniProt Q9P289); conditions: read-out: Percent Control
T26 construct: purchased Eurofins Discovery (DiscoverX KINOMEscan scanMAX)
Protocol: as §1

MRCKA = molecular target: T27, MRCKA (Homo sapiens, UniProt Q5VT25); conditions: read-out: Percent Control
T27 construct: purchased Eurofins Discovery (DiscoverX KINOMEscan scanMAX)
Protocol: as §1

NEK3 = molecular target: T28, NEK3 (Homo sapiens, UniProt P51956); conditions: read-out: Percent Control
T28 construct: purchased Eurofins Discovery (DiscoverX KINOMEscan scanMAX)
Protocol: as §1

DCAMKL3 = molecular target: T29, DCAMKL3 (Homo sapiens, UniProt Q9C098); conditions: read-out: Percent Control
T29 construct: purchased Eurofins Discovery (DiscoverX KINOMEscan scanMAX)
Protocol: as §1

ABL1 = molecular target: T30, ABL1 (Homo sapiens, UniProt P00519); conditions: 1000 nM; read-out: Percent Control
T30 construct: purchased Eurofins Discovery
Protocol: as §1

TLK1 = molecular target: T31, TLK1 (Homo sapiens, UniProt Q9UKI8); conditions: read-out: Percent Control
T31 construct: purchased Eurofins Discovery (DiscoverX KINOMEscan scanMAX)
Protocol: as §1

MAP4K2 = molecular target: T32, MAP4K2 (Homo sapiens, UniProt Q12851); conditions: read-out: Percent Control
T32 construct: purchased Eurofins Discovery (DiscoverX KINOMEscan scanMAX)
Protocol: as §1

BRAF(V600E) = molecular target: T33, BRAF(V600E) (Homo sapiens, UniProt P15056, V600E); conditions: read-out: Percent Control
T33 construct: purchased Eurofins Discovery (DiscoverX KINOMEscan scanMAX)
Protocol: as §1

T14 sequence (O00444 whole entry): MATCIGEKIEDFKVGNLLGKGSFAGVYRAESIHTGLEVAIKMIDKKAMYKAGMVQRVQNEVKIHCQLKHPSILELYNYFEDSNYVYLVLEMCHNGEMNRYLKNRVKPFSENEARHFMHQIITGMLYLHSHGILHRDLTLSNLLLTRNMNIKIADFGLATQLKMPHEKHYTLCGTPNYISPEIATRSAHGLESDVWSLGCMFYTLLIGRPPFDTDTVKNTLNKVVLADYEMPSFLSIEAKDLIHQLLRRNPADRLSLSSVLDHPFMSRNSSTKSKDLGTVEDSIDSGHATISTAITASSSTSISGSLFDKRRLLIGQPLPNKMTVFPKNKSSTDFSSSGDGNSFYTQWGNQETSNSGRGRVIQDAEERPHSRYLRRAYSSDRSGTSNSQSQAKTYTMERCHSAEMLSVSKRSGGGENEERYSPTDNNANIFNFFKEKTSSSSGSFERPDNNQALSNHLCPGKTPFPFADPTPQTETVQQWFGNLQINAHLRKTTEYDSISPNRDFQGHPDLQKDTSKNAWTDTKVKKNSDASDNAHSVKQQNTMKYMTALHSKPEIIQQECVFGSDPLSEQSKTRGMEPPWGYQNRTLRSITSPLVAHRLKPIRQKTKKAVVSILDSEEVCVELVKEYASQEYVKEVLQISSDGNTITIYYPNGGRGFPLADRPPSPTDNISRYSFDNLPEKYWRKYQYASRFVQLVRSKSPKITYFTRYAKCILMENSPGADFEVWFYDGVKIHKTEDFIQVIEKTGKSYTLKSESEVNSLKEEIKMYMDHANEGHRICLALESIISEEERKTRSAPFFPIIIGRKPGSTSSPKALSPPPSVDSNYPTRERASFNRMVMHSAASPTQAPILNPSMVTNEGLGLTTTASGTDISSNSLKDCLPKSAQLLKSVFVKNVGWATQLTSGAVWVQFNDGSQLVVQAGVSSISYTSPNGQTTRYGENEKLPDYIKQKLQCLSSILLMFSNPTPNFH
T27 sequence (Q5VT25 whole entry): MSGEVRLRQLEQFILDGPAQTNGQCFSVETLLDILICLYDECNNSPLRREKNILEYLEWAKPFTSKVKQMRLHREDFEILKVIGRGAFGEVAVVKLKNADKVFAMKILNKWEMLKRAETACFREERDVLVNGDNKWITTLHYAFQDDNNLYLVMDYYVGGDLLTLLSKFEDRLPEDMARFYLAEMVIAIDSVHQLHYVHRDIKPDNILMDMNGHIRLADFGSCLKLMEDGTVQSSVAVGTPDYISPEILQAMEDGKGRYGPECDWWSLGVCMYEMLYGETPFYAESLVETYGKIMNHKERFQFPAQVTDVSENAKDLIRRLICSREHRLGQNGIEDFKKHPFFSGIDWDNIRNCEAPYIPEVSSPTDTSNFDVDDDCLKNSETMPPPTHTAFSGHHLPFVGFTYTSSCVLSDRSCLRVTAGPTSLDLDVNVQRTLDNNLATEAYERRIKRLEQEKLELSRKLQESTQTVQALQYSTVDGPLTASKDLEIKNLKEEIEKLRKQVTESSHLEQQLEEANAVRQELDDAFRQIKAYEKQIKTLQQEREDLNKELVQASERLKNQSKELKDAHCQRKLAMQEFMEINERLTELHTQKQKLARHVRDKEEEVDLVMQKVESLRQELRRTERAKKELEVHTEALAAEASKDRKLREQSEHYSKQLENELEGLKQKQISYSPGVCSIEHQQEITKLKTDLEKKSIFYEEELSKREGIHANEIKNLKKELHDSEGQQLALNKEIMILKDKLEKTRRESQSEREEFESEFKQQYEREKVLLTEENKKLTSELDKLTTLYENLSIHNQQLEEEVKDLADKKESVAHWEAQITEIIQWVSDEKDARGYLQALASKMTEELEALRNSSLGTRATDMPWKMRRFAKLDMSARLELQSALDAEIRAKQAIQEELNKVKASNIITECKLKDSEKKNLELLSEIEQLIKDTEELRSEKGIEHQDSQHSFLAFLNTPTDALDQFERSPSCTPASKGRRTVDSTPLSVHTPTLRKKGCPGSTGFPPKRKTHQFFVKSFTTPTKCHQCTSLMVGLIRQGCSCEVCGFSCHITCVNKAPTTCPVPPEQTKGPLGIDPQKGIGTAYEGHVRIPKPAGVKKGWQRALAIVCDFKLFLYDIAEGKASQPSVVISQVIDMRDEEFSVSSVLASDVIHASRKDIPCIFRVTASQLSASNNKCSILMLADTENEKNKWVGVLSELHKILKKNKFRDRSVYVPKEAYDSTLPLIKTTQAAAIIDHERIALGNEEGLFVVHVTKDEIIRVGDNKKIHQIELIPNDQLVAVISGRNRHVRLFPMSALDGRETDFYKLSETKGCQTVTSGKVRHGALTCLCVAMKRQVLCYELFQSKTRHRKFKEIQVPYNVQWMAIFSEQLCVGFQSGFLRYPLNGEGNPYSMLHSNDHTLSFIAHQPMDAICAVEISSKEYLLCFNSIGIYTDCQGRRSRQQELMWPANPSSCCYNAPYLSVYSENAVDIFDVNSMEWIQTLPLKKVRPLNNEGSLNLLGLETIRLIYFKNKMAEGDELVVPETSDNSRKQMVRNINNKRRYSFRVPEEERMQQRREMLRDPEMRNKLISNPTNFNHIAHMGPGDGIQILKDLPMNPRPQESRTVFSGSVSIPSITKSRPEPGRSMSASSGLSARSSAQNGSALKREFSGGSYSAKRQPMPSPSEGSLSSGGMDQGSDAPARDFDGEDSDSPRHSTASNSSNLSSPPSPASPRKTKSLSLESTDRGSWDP
T21 sequence (P54753 34-998): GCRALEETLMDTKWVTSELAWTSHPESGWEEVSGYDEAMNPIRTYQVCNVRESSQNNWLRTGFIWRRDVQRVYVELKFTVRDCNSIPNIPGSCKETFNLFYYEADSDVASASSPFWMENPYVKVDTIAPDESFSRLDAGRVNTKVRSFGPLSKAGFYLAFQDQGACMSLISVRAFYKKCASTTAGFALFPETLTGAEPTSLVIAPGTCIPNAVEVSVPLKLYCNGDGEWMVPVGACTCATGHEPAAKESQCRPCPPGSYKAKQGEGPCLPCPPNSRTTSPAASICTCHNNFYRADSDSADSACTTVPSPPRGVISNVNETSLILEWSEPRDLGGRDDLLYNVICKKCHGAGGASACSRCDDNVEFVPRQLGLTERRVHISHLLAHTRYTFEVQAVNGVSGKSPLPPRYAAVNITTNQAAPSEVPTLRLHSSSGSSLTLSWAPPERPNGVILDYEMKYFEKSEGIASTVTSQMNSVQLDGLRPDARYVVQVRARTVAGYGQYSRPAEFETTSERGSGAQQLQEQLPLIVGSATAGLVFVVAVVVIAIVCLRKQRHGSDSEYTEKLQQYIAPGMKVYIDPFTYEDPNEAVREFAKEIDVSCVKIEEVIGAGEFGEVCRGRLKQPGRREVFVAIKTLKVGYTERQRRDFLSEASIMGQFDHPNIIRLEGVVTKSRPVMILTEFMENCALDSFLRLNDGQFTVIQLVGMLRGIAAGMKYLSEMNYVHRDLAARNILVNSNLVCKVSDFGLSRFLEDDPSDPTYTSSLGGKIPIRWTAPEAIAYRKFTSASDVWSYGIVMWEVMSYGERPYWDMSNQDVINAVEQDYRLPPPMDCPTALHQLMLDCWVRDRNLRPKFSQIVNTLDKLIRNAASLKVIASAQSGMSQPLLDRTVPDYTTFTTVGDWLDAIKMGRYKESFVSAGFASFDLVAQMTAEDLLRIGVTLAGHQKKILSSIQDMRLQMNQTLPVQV
T4 sequence (Q13873 27-1038): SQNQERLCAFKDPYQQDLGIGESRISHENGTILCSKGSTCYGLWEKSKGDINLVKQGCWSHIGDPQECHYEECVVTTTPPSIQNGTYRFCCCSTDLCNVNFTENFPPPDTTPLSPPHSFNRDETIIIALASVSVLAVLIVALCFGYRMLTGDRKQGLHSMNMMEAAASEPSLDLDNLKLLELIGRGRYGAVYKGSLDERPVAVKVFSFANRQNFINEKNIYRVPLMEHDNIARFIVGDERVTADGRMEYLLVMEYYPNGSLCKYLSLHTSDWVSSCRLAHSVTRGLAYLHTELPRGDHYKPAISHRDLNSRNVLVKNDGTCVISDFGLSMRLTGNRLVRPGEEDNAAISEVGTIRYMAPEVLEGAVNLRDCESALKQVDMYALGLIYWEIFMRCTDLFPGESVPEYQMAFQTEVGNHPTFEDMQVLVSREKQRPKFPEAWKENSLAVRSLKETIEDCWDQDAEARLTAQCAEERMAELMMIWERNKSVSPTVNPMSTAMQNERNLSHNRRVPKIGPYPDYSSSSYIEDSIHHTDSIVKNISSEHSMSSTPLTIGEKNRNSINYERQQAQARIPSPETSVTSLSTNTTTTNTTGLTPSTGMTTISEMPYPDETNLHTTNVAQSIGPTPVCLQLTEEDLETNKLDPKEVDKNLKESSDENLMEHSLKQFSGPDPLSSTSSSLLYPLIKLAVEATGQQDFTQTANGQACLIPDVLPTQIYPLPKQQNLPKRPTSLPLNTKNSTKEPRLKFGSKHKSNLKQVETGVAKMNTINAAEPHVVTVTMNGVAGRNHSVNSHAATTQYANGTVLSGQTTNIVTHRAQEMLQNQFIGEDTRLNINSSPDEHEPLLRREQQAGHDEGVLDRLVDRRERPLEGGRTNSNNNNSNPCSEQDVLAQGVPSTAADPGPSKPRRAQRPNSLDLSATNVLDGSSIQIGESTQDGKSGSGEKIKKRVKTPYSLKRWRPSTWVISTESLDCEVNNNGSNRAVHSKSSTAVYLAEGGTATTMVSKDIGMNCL
T26 sequence (Q9P289 whole entry): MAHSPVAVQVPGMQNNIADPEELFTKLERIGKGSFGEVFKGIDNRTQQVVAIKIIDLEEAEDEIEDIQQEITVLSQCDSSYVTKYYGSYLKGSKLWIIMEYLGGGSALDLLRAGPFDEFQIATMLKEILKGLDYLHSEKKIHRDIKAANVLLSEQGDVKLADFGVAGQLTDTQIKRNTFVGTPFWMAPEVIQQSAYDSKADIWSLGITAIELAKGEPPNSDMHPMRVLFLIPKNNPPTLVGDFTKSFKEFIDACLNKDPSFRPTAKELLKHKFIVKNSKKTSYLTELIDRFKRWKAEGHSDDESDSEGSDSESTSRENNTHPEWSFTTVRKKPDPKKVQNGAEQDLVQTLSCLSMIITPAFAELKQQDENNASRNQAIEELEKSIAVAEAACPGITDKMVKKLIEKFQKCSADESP

Cc1cc(Nc2ccc(F)c(CC3(C(=O)N4CCC(F)(CN5CCN(c6ccc(N7CCC(=O)NC7=O)cn6)CC5)CC4)CCN(Cc4cccc(Cl)c4F)CC3)n2)n[nH]1 [SK5527]
remaining binding at 0.1 µM (PLK2; 100 nM): 100% | remaining binding at 1 µM (PLK2; 1000 nM): 87% | remaining binding at 0.1 µM (FGFR2; 100 nM): 100% | remaining binding at 1 µM (FGFR2; 1000 nM): 90% | remaining binding at 0.1 µM (MAP4K3; 100 nM): 82% | remaining binding at 1 µM (MAP4K3; 1000 nM): 72% | remaining binding at 0.1 µM (BMPR2; 100 nM): 98% | remaining binding at 1 µM (BMPR2; 1000 nM): 50% | remaining binding at 0.1 µM (EGFR(G719C); 100 nM): 87% | remaining binding at 1 µM (EGFR(G719C); 1000 nM): 94% | remaining binding at 0.1 µM ([1]; 100 nM): 92% | remaining binding at 1 µM ([1]; 1000 nM): 68% | remaining binding at 0.1 µM (PIM3; 100 nM): 100% | remaining binding at 1 µM (PIM3; 1000 nM): 100% | remaining binding at 0.1 µM (NEK2; 100 nM): 90% | remaining binding at 1 µM (NEK2; 1000 nM): 91% | remaining binding at 0.1 µM (ADCK4; 100 nM): 92% | remaining binding at 1 µM (ADCK4; 1000 nM): 84% | remaining binding at 0.1 µM ([2]; 100 nM): 81% | remaining binding at 1 µM ([2]; 1000 nM): 65% | remaining binding at 0.1 µM (CAMKK2; 100 nM): 100% | remaining binding at 1 µM (CAMKK2; 1000 nM): 100% | remaining binding at 0.1 µM (TAOK1; 100 nM): 79% | remaining binding at 1 µM (TAOK1; 1000 nM): 88% | remaining binding at 0.1 µM (EPHA2; 100 nM): 100% | remaining binding at 1 µM (EPHA2; 1000 nM): 100% | remaining binding at 0.1 µM (PLK4; 100 nM): 76% | remaining binding at 1 µM (PLK4; 1000 nM): 29% | remaining binding at 0.1 µM (CDK5; 100 nM): 100% | remaining binding at 1 µM (CDK5; 1000 nM): 100% | remaining binding at 0.1 µM (CDK4-cyclinD3; 100 nM): 100% | remaining binding at 1 µM (CDK4-cyclinD3; 1000 nM): 100% | remaining binding at 0.1 µM (INSR; 100 nM): 85% | remaining binding at 1 µM (INSR; 1000 nM): 85% | remaining binding at 0.1 µM ([3]; 100 nM): 63% | remaining binding at 1 µM ([3]; 1000 nM): 15% | remaining binding at 0.1 µM (RIOK3; 100 nM): 96% | remaining binding at 1 µM (RIOK3; 1000 nM): 82% | remaining binding at 0.1 µM (WNK1; 100 nM): 73% | remaining binding at 1 µM (WNK1; 1000 nM): 77% | remaining binding at 0.1 µM (EPHB3; 100 nM): 100% | remaining binding at 1 µM (EPHB3; 1000 nM): 100% | Percent Control (FLT3(ITD,F691L); 100 nM): 100% | Percent Control (FLT3(ITD,F691L); 1000 nM): 75% | remaining binding at 0.1 µM (DCAMKL1; 100 nM): 100% | remaining binding at 1 µM (DCAMKL1; 1000 nM): 88% | remaining binding at 0.1 µM (TLK2; 100 nM): 100% | remaining binding at 1 µM (TLK2; 1000 nM): 94% | remaining binding at 0.1 µM (ZAP70; 100 nM): 97% | remaining binding at 1 µM (ZAP70; 1000 nM): 100% | remaining binding at 0.1 µM (IRAK3; 100 nM): 100% | remaining binding at 1 µM (IRAK3; 1000 nM): 100% | remaining binding at 0.1 µM (MST4; 100 nM): 95% | remaining binding at 1 µM (MST4; 1000 nM): 86% | remaining binding at 0.1 µM (MRCKA; 100 nM): 100% | remaining binding at 1 µM (MRCKA; 1000 nM): 93% | remaining binding at 0.1 µM (NEK3; 100 nM): 88% | remaining binding at 1 µM (NEK3; 1000 nM): 61% | remaining binding at 0.1 µM (DCAMKL3; 100 nM): 100% | remaining binding at 1 µM (DCAMKL3; 1000 nM): 100% | remaining binding at 1 µM (ABL1): 8.4% | remaining binding at 0.1 µM (TLK1; 100 nM): 88% | remaining binding at 1 µM (TLK1; 1000 nM): 74% | remaining binding at 0.1 µM (MAP4K2; 100 nM): 88% | remaining binding at 1 µM (MAP4K2; 1000 nM): 95% | remaining binding at 0.1 µM (BRAF(V600E); 100 nM): 100% | remaining binding at 1 µM (BRAF(V600E); 1000 nM): 100%
